Key:
[1] = Complex formation with cell wall precursors (TLC mobility shift), lipid II; format: binding
Protocol: (§1) Binding of malacidin to C55-P and lipid II was evaluated by incubating 1 nmol of each purified precursor with 0.5 nmol of malacidin or daptomycin in 100 mM Tris-HCl, pH 7.5, 0.1% Triton X-100, 13 mM MgCl2, and with or without 25 mM CaCl2, for 60 min at 37° C. Subsequently, the mixture was extracted twice with n-BuOH/6 M pyridinium acetate buffer, pH 4.2 (3:1, v/v). The butanol fraction was evaporated and the residue was dissolved in CHCl3/methanol (1:1, v/v). The resuspension was analysed for the loss of unbound malacidin or daptomycin to a complex by TLC analysis using chloroform/methanol/water/ammonia (88:48:10:1, v/v/v/v) as the solvent and detection by 254/366 nm visualization. Experiments were performed with biological replicates.

[2] = tested on: Salmonella enterica IR 715; assay: MIC assay, Salmonella enterica; format: cell-based
Protocol: (§2) MIC assays were performed in duplicate in 96-well microtiter plates on the basis of the protocol recommended by the Clinical and Laboratory Standards Institute (Cockerill, 2012, Clinical and Laboratory Standards Institute). All presented data are the average of at least three independent assays. Stock solutions of malacidin or daptomycin (2 mg ml^−1 in H2O) were added to the first well in a row and serially diluted (twofold per transfer) across the microtiter plate. CaCl2 was supplemented to media at a final concentration of 15 mM and fetal bovine serum (ATCC) was added to media (1:10) to test the effect of serum. Overnight cultures of bacteria were diluted 5,000-fold, and 50 μl was used as an inoculum in each well. MIC values were determined by visual inspection after 18 h incubation (30° C., static growth). For the enhanced calcium titration experiments, standard MIC assays were performed with methicillin-resistant Staphylococcus aureus (MRSA) PFGE strain type USA300 in media supplemented with CaCl2 at: 25.0, 18.8, 14.1, 7.03, 3.52, 2.50, 1.76, 0.880, 0.440, 0.250 and 0 mM. To assess the effects of monovalent and divalent cations on malacidin activity, standard MIC assays were performed with MRSA USA300 in media supplemented with 15 mM CaCl2, MgCl2, MnCl2, ZnCl2, SrCl2, NaCl and KCl. To evaluate the effects of pulmonary surfactants on activity against a community-acquired pneumonia-causing pathogen, standard MIC assays were performed with Streptococcus pneumoniae TCH8431 in media supplemented with both 15 mM CaCl1 and Survanta (beractant) at a final concentration of 5, 1, 0.5, 0.25 or 0% (volume/volume (v/v) percent).

S. aureus NRS100 = assay: MIC assay, S. aureus NRS100; format: cell-based, Staphylococcus aureus; details: β-lactams
Protocol: as §2

E. faecium Com15 = assay: MIC assay, E. faecium Com15; format: cell-based, Enterococcus faecium
Protocol: as §2

S. aureus BAA-42 = assay: MIC assay, S. aureus BAA-42; format: cell-based, Staphylococcus aureus; details: β-lactams
Protocol: as §2

[3] = tested on: red blood cell (5% sheep blood agar plates); format: cell-based
Protocol: Cytotoxicity against human cell lines was tested using an ATP release assay, CelITiter-Glo (Promega), according to the manufacturer's instructions. HEK293 cells (293FT, Thermo Fisher Scientific, no. R700-07) and MRC5 cells (ATCC CCL-171) were grown in complete DMEM media supplemented with 10% FBS, and were inspected visually for authentication and tested for mycoplasma contamination using a MycoAlert detection kit (Lonza). Cells were grown to confluence, trypsinized, counted and plated in 384-well cell culture plates at an appropriate density (2,500 cells per well for HEK293 and 1000 cells per well for MRC5). The test compound was added 24 h later in the presence of calcium, and viability was determined after 4.5 h of incubation. Experiments were performed with biological replicates. Haemolytic activity was evaluated by a red blood cell disc diffusion assay. Twenty-microlitre stocks of malacidin A and Triton X-100 were infused on filter discs, dried completely and then overlaid on 5% sheep blood agar plates (Hardy Diagnostics). The plates were incubated for 24 h at 20° C., and then checked for lysis.

[4] = tested on: Lactobacillus rhamnosus NCTC 13031; assay: MIC assay, L. rhamnosus; format: cell-based
Protocol: as §2, with “To evaluate the effects of pulmonary surfactants on activity against a community-acquired pneumonia-causing pathogen, standard MIC assays were performed with Streptococcus pneumoniae TCH8431 in media supplemented with both 15 mM CaCl1 and Survanta (beractant) at a final concentration of 5, 1, 0.5, 0.25 or 0% (volume/volume (v/v) percent).” left out

[5] = tested on: Streptococcus pneumoniae TCH8431; assay: MIC assay, S. pneumoniae; format: cell-based
Protocol: as §2

[6] = tested on: Pseudomonas aeruginosa PAO1; assay: MIC assay, P. aeruginosa; format: cell-based
Protocol: as §2

S. aureus NRS140 = assay: MIC assay, S. aureus NRS140; format: cell-based, Staphylococcus aureus; details: β-lactams
Protocol: as §2

[7] = tested on: Bacillus subtilis 168 IAI; assay: MIC assay, B. subtilis; format: cell-based
Protocol: as §2

S. aureus NRS146 = assay: MIC assay, S. aureus NRS146; format: cell-based, Staphylococcus aureus; details: β-lactams
Protocol: as §2

[8] = Complex formation with cell wall precursors (TLC mobility shift), C55-P; format: binding; details: 1 nmol precursor, 0.5 nmol antibiotic
Protocol: as §1

Escherichia coli DH5α = assay: MIC assay, E. coli DH5α; format: cell-based
Protocol: as §2

E. faecium VRE = assay: MIC assay, E. faecium VRE; format: cell-based, Enterococcus faecium; details: Vancomycin (VRE)
Protocol: as §2

Question: For malacidin A, which “Lipid-II-binding activity (TLC mobility shift)” value ([1]; 1 nmol precursor, 0.5 nmol antibiotic) is on record?
Answer: lipid-II-dependent disappearance of the malacidin band

Question: What about the “Calcium dependence of the interaction with lipid II” value ([1]; with or without 25 mM CaCl2) of the same substance?
Answer: calcium-dependent

Question: What about the MIC [2] of the same substance?
Answer: >100 µg/mL

Question: And the MIC (S. aureus NRS100; S. aureus NRS100, tetracycline, 15 mM CaCl2)?
Answer: 0.2-0.8 μg m1^−1

Question: What about the MIC (S. aureus NRS100; Staphylococcus aureus NRS100, Tetracycline) of the same substance?
Answer: 0.2 to 0.8 µg/mL

Question: What about the MIC (E. faecium Com15; E. faecium Com15, 15 mM CaCl2) of the same substance?
Answer: 0.8-2.0 μg m1^−1

Question: And the MIC (E. faecium Com15; Enterococcus faecium Com15)?
Answer: 0.8 to 2.0 µg/mL

Question: And the MIC (S. aureus BAA-42; S. aureus BAA-42, 15 mM CaCl2)?
Answer: 0.2-0.8 μg m1^−1

Question: And the MIC (S. aureus BAA-42; Staphylococcus aureus BAA-42)?
Answer: 0.2 to 0.8 µg/mL

Question: What about the Haemolytic activity [3] of the same substance?
Answer: no hemolytic effects

Question: And the MIC ([4]; L. rhamnosus, 15 mM CaCl2)?
Answer: 0.1-0.2 μg m1^−1

Question: And the MIC ([4]; Lactobacillus rhamnosus NCTC 13031)?
Answer: 0.1 to 0.2 µg/mL

Question: And the “Activity against S. pneumoniae in the presence of pulmonary surfactants” value ([5]; 15 mM CaCl2 and Survanta (beractant) 0-5% v/v)?
Answer: largely unaffected

Question: What about the MIC ([5]; S. pneumoniae, 15 mM CaCl2) of the same substance?
Answer: 0.8-2.0 μg m1^−1

Question: What about the MIC ([5]; Streptococcus pneumoniae TCH8431) of the same substance?
Answer: 0.1 to 0.2 µg/mL

Question: What about the MIC [6] of the same substance?
Answer: >100 µg/mL

Question: And the MIC (S. aureus NRS140; S. aureus NRS140, erythromycin, spectinomycin, 15 mM CaCl2)?
Answer: 0.4-0.8 μg m1^−1

Question: What about the MIC (S. aureus NRS140; Staphylococcus aureus NRS140, Erythromycin, Spectinomycin) of the same substance?
Answer: 0.4 to 2.0 µg/mL

Question: And the MIC ([7]; B. subtilis, 15 mM CaCl2)?
Answer: 0.2-0.4 μg m1^−1

Question: And the MIC ([7]; Bacillus subtilis 168 IAI)?
Answer: 0.2 to 0.4 µg/mL

Question: And the MIC (S. aureus NRS146; S. aureus NRS146, vancomycin (VISA), 15 mM CaCl2)?
Answer: 0.4-0.8 μg m1^−1

Question: And the MIC (S. aureus NRS146; Staphylococcus aureus NRS146, Vancomycin (VISA))?
Answer: 0.4 to 0.8 µg/mL

Question: What about the “Sequestration of C55-P (TLC mobility shift)” value [8] of the same substance?
Answer: did not sequester C55-P

Question: And the MIC (Escherichia coli DH5α)?
Answer: >100 µg/mL

Question: And the MIC (E. faecium VRE; E. faecium VRE, 15 mM CaCl2)?
Answer: 0.4-0.8 μg m1^−1

Question: What about the MIC (E. faecium VRE; Enterococcus faecium VRE) of the same substance?
Answer: 0.8 to 2.0 µg/mL

From patent US11472843B2, “Malacidins and methods of use” (The Rockefeller University, priority 2017, dated 2022)
